Data on 50 compounds can be found in the Kinase Knowledgebase extract (Sharma et al. 2016).

Experiment [1] deals with EGFR (Human), P00533 [Assessment of Proliferation in EGFR DelE746_A750 Mutant Expressing HCC827 Cells].
The test system of experiment [2] is EGFR (Human), P00533 [T790M/L858R]. As to conditions: nci-h1975.
For experiment [3], the system named is EGFR (human), P00533 [WT]. As to conditions: a431.
In experiment [4] the target is EGFR (human), P00533 [WT].

EGFR (Human), P00533 [T790M/L858R], sequence (P00533 whole entry T790M/L858R, looked up): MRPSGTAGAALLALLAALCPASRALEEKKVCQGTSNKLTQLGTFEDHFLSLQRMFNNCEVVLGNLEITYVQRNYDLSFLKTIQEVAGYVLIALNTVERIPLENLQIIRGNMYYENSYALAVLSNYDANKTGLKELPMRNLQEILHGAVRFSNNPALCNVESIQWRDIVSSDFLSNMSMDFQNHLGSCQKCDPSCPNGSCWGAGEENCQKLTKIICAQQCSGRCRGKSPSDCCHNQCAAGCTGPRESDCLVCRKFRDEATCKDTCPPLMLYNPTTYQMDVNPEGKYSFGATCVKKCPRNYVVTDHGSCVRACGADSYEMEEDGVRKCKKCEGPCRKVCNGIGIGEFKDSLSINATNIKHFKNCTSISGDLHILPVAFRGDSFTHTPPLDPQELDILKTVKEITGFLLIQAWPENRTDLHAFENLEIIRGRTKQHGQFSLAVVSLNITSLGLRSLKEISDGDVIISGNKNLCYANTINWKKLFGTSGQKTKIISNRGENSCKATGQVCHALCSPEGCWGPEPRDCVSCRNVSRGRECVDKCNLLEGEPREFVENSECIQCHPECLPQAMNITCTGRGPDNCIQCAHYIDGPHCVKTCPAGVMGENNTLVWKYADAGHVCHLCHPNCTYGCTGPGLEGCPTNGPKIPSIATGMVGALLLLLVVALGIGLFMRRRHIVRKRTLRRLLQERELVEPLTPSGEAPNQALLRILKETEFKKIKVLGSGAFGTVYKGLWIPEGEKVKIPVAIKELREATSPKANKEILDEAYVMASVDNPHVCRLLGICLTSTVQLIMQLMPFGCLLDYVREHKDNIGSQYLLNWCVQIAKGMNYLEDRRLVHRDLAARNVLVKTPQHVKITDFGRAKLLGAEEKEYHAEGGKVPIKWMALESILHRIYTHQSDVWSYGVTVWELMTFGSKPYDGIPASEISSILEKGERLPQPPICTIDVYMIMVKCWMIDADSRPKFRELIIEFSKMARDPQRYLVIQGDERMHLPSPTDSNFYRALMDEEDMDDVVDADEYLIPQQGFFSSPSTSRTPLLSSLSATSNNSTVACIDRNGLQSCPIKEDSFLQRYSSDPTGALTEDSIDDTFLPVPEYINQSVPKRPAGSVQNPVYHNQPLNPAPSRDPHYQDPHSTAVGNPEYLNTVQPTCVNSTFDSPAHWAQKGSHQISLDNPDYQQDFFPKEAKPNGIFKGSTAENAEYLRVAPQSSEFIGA
EGFR (Human), P00533 [Assessment of Proliferation in EGFR DelE746_A750 Mutant Expressing HCC827 Cells], sequence (P00533 whole entry, looked up, stated change not applied): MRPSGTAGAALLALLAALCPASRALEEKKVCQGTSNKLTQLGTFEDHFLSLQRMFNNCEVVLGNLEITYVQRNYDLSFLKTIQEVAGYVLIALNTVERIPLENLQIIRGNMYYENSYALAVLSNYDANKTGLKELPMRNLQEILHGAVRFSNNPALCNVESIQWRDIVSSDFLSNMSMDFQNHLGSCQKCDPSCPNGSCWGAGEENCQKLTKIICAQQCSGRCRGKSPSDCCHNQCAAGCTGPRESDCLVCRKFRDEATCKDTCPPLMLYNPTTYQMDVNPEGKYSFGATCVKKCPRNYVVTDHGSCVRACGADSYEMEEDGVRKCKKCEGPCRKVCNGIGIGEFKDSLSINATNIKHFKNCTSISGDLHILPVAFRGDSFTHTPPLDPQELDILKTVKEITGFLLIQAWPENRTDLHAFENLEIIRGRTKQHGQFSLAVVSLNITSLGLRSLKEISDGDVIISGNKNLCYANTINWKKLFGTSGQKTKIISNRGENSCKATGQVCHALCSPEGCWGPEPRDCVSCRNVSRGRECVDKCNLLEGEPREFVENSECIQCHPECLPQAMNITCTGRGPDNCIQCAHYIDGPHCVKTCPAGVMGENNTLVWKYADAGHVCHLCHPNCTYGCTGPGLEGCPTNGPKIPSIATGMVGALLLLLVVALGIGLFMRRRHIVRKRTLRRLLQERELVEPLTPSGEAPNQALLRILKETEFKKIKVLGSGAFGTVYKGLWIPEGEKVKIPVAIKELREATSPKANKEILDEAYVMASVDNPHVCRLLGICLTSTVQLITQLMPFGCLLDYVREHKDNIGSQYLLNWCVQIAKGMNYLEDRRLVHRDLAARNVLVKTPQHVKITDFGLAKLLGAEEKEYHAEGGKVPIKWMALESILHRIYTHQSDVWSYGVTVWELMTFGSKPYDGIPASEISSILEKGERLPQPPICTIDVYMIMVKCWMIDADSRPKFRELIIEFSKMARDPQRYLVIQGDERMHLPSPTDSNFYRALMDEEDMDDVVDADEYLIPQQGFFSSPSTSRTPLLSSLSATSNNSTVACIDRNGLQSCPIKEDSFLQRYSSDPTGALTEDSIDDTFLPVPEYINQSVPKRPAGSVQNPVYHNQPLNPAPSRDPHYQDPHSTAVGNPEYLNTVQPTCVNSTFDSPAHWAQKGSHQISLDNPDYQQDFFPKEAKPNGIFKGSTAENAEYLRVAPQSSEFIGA
EGFR (human), P00533 [WT], sequence (P00533 whole entry, looked up): as the sequence (P00533 whole entry, looked up, stated change not applied) above

Usually GI50 stands for the concentration that inhibits growth by half. On to `C=CC(=O)Nc1cccc(Oc2nc(Nc3ccc(N4CCN(C5CCCCC5)CC4)cc3)nc3ccsc23)c1`, for which the figures for the GI50 in experiment [1], in experiment [2] and in experiment [3] were at most 50 nM, at most 50 nM and 100 to 1000 nM, respectively.

Take `C=CC(=O)Nc1cccc(Oc2nc(Nc3ccc(N4CCN(C)CC4)cc3)nc3ccoc23)c1`: the values for the GI50 in experiment [1], in experiment [2] and in experiment [3] were at most 50 nM, at most 50 nM and 100 to 1000 nM, respectively.

With `C=CC(=O)Nc1cccc(Oc2nc(Nc3ccc(N4CCN(CC)CC4)cc3)nc3ccsc23)c1`, the GI50 in experiment [1] is at most 50 nM; in experiment [2], at most 50 nM; in experiment [3], 100 to 1000 nM.

For `C=CC(=O)Nc1cccc(Oc2nc(Nc3ccc(CN(C)C)cc3)nc3ccsc23)c1`, the GI50 in experiment [1] is at most 50 nM; in experiment [2], at most 50 nM; in experiment [3], 100 to 1000 nM.

By IC50 is commonly meant the point on the concentration scale where inhibition reaches its midpoint. Low values mean inhibition by little substance, high ones a need for much substance. Regarding `C=CC(=O)Nc1cccc(Nc2nc(Nc3ccc(N4CCN(C)CC4)cc3)nc3ccsc23)c1`, the 50% growth inhibitory concentration (GI50) in experiment [1] and in experiment [2] was at most 50 nM in each case. The same compound came in with an IC50 in experiment [4] of 100 to 1000 nM.

As to `C=CC(=O)Nc1cccc(Oc2nc(Nc3ccc(C(=O)NC4CCN(C(C)C)CC4)cc3)nc3ccsc23)c1`, the values for the concentration for 50% growth inhibition (GI50) in experiment [1], in experiment [2] and in experiment [3] were at most 50 nM, at most 50 nM and 100 to 1000 nM, respectively.

As to `C=CC(=O)Nc1cccc(Oc2nc(Nc3ccc(N4CCC(N5CCCCC5)CC4)cc3)nc3ccsc23)c1`, the GI50 in experiment [1] and in experiment [2] was at most 50 nM each time. For the same compound, in experiment [4], the IC50 lay in the range of 100 to 1000 nM.

As for `C=CC(=O)Nc1cccc(Oc2nc(Nc3ccc(N4CCN(C(C)C)CC4)cc3)nc3ccsc23)c1`, the figures for the GI50 in experiment [1], in experiment [2] and in experiment [3] were at most 50 nM, at most 50 nM and 100 to 1000 nM, respectively.

For the compound `C=CC(=O)Nc1cccc(Oc2nc(Nc3ccc(N4CCOCC4)c(F)c3)nc3ccsc23)c1`, the GI50 in experiment [1] and in experiment [2] was at most 50 nM each time.

For `C=CC(=O)Nc1cccc(Oc2nc(Nc3ccc(N4CCN(C)CC4)c(F)c3OC)nc3ccsc23)c1`, the GI50 is 50 to 100 nM in experiment [1] and at most 50 nM in experiment [2].

For `C=CC(=O)Nc1cccc(Oc2nc(Nc3ccc4c(c3)CCN4C(=O)CN(C)C)nc3ccsc23)c1`, the GI50 in experiment [1] and in experiment [2] was at most 50 nM each time.

Turning to `C=CC(=O)Nc1cccc(Oc2nc(Nc3ccc(O)cc3)nc3ccsc23)c1`, the GI50 in experiment [1] and in experiment [2] was 100 to 1000 nM in each case.

Turning to `C=CC(=O)Nc1cccc(Oc2nc(Nc3ccc(N4CCC(N5CCCCC5)CC4)c(F)c3)nc3ccsc23)c1`, the GI50 in experiment [1] and in experiment [2] was at most 50 nM throughout.

For the compound `C=CC(=O)Nc1cccc(Oc2nc(Nc3ccc(CN4CCC(N5CCOCC5)CC4)cc3)nc3ccsc23)c1`, the GI50 in experiment [1] and in experiment [2] was at most 50 nM in each case.

In the case of `C=CC(=O)Nc1cccc(Oc2nc(Nc3ccc(C4CCN(C)CC4)cc3)nc3ccsc23)c1`, the GI50 in experiment [1] and in experiment [2] was at most 50 nM each time.

Consider `C=CC(=O)Nc1cccc(Oc2nc(Nc3ccc(CN4CCC(N(C)C)CC4)cc3)nc3ccsc23)c1`, for which the GI50 in experiment [1] and in experiment [2] was at most 50 nM throughout.

For the compound `C=CC(=O)Nc1cccc(Oc2nc(Nc3ccc(C(=O)NCCN(C)C)cc3)nc3ccsc23)c1`, the GI50 was at most 50 nM in experiment [1] and 100 to 1000 nM in experiment [2].

Take `C=CC(=O)Nc1cccc(Oc2nc(Nc3ccc(N4CCC(CO)CC4)cc3)nc3ccsc23)c1`: the GI50 is at most 50 nM in experiment [1] and 50 to 100 nM in experiment [2].

Take `C=CC(=O)Nc1cccc(Oc2nc(Nc3ccc(CN4CCN(C)CC4)cc3)nc3ccsc23)c1`: the GI50 in experiment [1] and in experiment [2] was at most 50 nM throughout.

In the case of `C=CC(=O)Nc1cccc(Oc2nc(Nc3ccc(OCCN4CCOCC4)cc3)nc3ccsc23)c1`, the GI50 in experiment [1] and in experiment [2] was at most 50 nM in each case.

As to `C=CC(=O)Nc1cccc(Oc2nc(Nc3ccc(N4CCN(C5CCN(C)CC5)CC4)cc3)nc3ccsc23)c1`, the GI50 in experiment [1] and in experiment [2] was at most 50 nM each time.

As to `C=CC(=O)Nc1cccc(Oc2nc(Nc3ccc(CCN4CCN(CC)CC4)cc3)nc3ccsc23)c1`, the GI50 in experiment [1] is 50 to 100 nM; in experiment [2], at most 50 nM.

For the compound `C=CC(=O)Nc1cccc(Oc2nc(Nc3ccc(OCCN(C)C)cc3)nc3ccsc23)c1`, the GI50 in experiment [1] and in experiment [2] was at most 50 nM throughout.

As for `C=CC(=O)Nc1cccc(Oc2nc(Nc3ccc4c(ccn4C)c3)nc3ccsc23)c1`, the figures for the GI50 in experiment [1] and in experiment [2] were 50 to 100 nM and at most 50 nM, respectively.

Take `C=CC(=O)Nc1cccc(Nc2nc(Nc3ccc(N4CCN(C)CC4)c(F)c3)nc3ccsc23)c1`: the GI50 in experiment [1] and in experiment [2] was at most 50 nM in each case.

Turning to `C=CC(=O)Nc1cccc(Oc2nc(Nc3ccc(CN4CCCCC4)cc3)nc3ccsc23)c1`, the GI50 in experiment [1] and in experiment [2] was at most 50 nM throughout.

Consider `C=CC(=O)Nc1cccc(Oc2nc(Nc3ccc(C4CCCN(C)C4)cc3OC)nc3ccsc23)c1` (centres undefined), for which the GI50 in experiment [1] and in experiment [2] was at most 50 nM throughout.

As for `C=CC(=O)Nc1cccc(Sc2nc(Nc3ccc(C4CCN(C)CC4)c(F)c3)nc3ccsc23)c1`, the GI50 in experiment [1] and in experiment [2] was at most 50 nM throughout.

Regarding `C=CC(=O)Nc1cccc(Oc2nc(Nc3ccc(C4CCCN(C)C4)c(F)c3)nc3ccsc23)c1` (centres undefined), the GI50 in experiment [1] and in experiment [2] was at most 50 nM throughout.

`C=CC(=O)Nc1cccc(Oc2nc(Nc3ccc(N4CCN(C)CC4)c(C)c3)nc3ccsc23)c1`: the GI50 in experiment [1] and in experiment [2] was at most 50 nM in each case.

Turning to `C=CC(=O)Nc1cccc(Oc2nc(Nc3ccc(N4CCN(CCF)CC4)cc3)nc3ccsc23)c1`, the GI50 was at most 50 nM in experiment [1] and 50 to 100 nM in experiment [2].

`C=CC(=O)Nc1cccc(Oc2nc(Nc3ccc(CN4CCN(C)CC4)nc3)nc3ccsc23)c1`: the GI50 in experiment [1] was at most 50 nM; in experiment [2], 50 to 100 nM.

For `C=CC(=O)Nc1cccc(Oc2nc(Nc3ccc(C4CCCN(C)C4)cc3)nc3ccsc23)c1` (centres undefined), the GI50 in experiment [1] and in experiment [2] was at most 50 nM in each case.

On to `C=CC(=O)Nc1cccc(Oc2nc(Nc3ccc(CN4CCN(C)CC4)c(F)c3)nc3ccsc23)c1`, for which the GI50 in experiment [1] and in experiment [2] was at most 50 nM each time.

Regarding `C=CC(=O)Nc1cccc(Oc2nc(Nc3ccc(N4CCN(C5CCN(C)CC5)CC4)nc3)nc3ccsc23)c1`, the GI50 in experiment [1] and in experiment [2] was at most 50 nM each time.

On to `C=CC(=O)Nc1cccc(Nc2nc(Nc3ccc(CN(C)C)cc3)nc3ccsc23)c1`, for which the GI50 in experiment [1] and in experiment [2] was at most 50 nM each time.

For the compound `C=CC(=O)Nc1cccc(Oc2nc(Nc3ccc(C(=O)N4CCN(CC)CC4)c(Cl)c3)nc3ccsc23)c1`, the GI50 in experiment [1] and in experiment [2] was at most 50 nM each time.

For `C=CC(=O)Nc1cccc(Oc2nc(Nc3ccc(NCCN(C)C)cc3)nc3ccsc23)c1`, the GI50 in experiment [1] is at most 50 nM; in experiment [2], 100 to 1000 nM.

With `C=CC(=O)Nc1cccc(Oc2nc(Nc3ccc(C4CCN(C)CC4)c(F)c3)nc3ccoc23)c1`, the GI50 in experiment [1] and in experiment [2] was at most 50 nM throughout.

Consider `C=CC(=O)Nc1cccc(Oc2nc(Nc3ccc(N4CCN(C(C)C)CC4)cc3)nc3ccoc23)c1`, for which the GI50 in experiment [1] is at most 50 nM; in experiment [2], at most 50 nM; in experiment [3], 100 to 1000 nM.

With `C=CC(=O)Nc1cccc(Oc2nc(Nc3ccc(NC(=O)N4CCN(C)CC4)c(F)c3)nc3ccsc23)c1`, the results for the GI50 in experiment [1] and in experiment [2] were at most 50 nM and 50 to 100 nM, respectively.

On to `C=CC(=O)Nc1cccc(Oc2nc(Nc3ccc(OC4CCN(CC)CC4)cc3)nc3ccsc23)c1`, for which the GI50 in experiment [1] and in experiment [2] was at most 50 nM in each case.

As for `C=CC(=O)Nc1cccc(Oc2nc(Nc3ccc(N4CCNCC4)c(Cl)c3)nc3ccsc23)c1`, the GI50 in experiment [1] and in experiment [2] was at most 50 nM each time.

`C=CC(=O)Nc1cccc(Oc2nc(Nc3ccc(CN4CCN(C5CCN(C)CC5)CC4)c(Cl)c3)nc3ccsc23)c1`: the GI50 was 50 to 100 nM in experiment [1] and at most 50 nM in experiment [2].

`C=CC(=O)Nc1cccc(Oc2nc(Nc3ccc(S(=O)(=O)N4CCN(CC)CC4)cc3)nc3ccsc23)c1`: the GI50 in experiment [1] was at most 50 nM; in experiment [2], 50 to 100 nM.

As for `C=CC(=O)Nc1cccc(Oc2nc(Nc3ccc(OC4CCN(C)CC4)c(F)c3)nc3ccsc23)c1`, the GI50 in experiment [1] and in experiment [2] was at most 50 nM in each case.

On to `C=CC(=O)Nc1cccc(Oc2nc(Nc3ccc(OCCN4CCN(C)CC4)c(F)c3)nc3ccsc23)c1`, for which the GI50 in experiment [1] and in experiment [2] was at most 50 nM in each case.

In the case of `C=CC(=O)Nc1cccc(Oc2nc(Nc3ccc(N4CC(C)OC(C)C4)c(F)c3)nc3ccsc23)c1` (centres undefined), the concentration for 50% growth inhibition (GI50) in experiment [1] and in experiment [2] was 50 to 100 nM in each case.

Regarding `C=CC(=O)Nc1cccc(Oc2nc(Nc3ccc(N4CCC(N5CCCC5)CC4)c(Cl)c3)nc3ccsc23)c1`, the GI50 in experiment [1] and in experiment [2] was at most 50 nM throughout.

`C=CC(=O)Nc1cccc(Oc2nc(Nc3ccc(N4CCCCC4)cc3)nc3ccsc23)c1`: the GI50 in experiment [1] was 100 to 1000 nM; in experiment [2], at most 50 nM.
